Assay results published in PubChem BioAssay (NCI).
Several values for one entry are separate records, joined by “and”; a condition that tells them apart may be missing. Identical values can stand only once.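 Grown in 96-well plates, cells were treated for 48 hours with each compound at five concentrations. Insufficient inhibition: endpoint recorded as highest concentration tested. At the GI50, growth is halved. The concentration for full growth arrest is given as TGI.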 Where a SMILES comes first, the peptide text is derived from it. [ ]: non-standard residue; d: D form. The star is where a group is joined. AllylGly = C=CC[CH](N)C(=O)O; Boc = CC(C)(C)OC(=O)*; OtBu = CC(C)(C)O*

Assays:
Assay in all cases: growth of human tumour cells (NCI), 48 h
[1] = system: OVCAR-5 ovarian
[2] = system: A549 NSCLC
[3] = system: DMS 273 small cell lung
[4] = system: COLO 205 colon
[5] = system: DLD-1 colon
[6] = system: HOP-18 NSCLC
[7] = system: NCI-H460 lung
[8] = system: 786-0 renal
[9] = system: TK-10 renal
[10] = system: MCF7 breast
[11] = system: XF 498 CNS
[12] = system: MDA-MB-231 breast

Compound	TGI [1] [µM]	TGI [2] [µM]	TGI [3] [µM]	TGI [4]	TGI [5]	TGI [6]	TGI [7] [µM]	TGI [8]	TGI [9]	TGI [10] [µM]	TGI [11]	TGI [12] [µM]	GI50 [4]	GI50 [7] [µM]	GI50 [9]
COc1cccc(NC(=S)Nn2c(C)nc3ccccc3c2=O)c1	> 100	> 100	> 100	> 100 µM	> 100 µM	> 100 µM	> 100	> 100 µM	> 100 µM	–	–	–	–	–	–
CCC1=CC2CN3CCc4c([nH]c5ccccc45)C(C(=O)OC)(C2)C13 (stereo unspecified)	24.3	82.5	91	80.6 µM	87.5 µM	> 30 µM	102	–	–	95.4	76.3 µM	–	–	–	–
CCCCc1c2c(nc3c1CCCC3O)/C(=C/c1ccccc1)CCC2 (stereo unspecified)	> 100	> 100	> 100	33.4 µM	–	89.5 µM	> 100	57 µM	74.7 µM	–	28.2 µM	–	–	–	–
CC1=C2C(=O)[C@H]3[C@@H](CC=C4C[C@@H](O)CC[C@@]43C)[C@@H]2CC[C@]12O[C@@H]1C[C@H](C)CN[C@H]1[C@H]2C	> 100	> 64.2	48.5	> 100 µM	97.1 µM	31.3 µM	> 65	> 57.5 µM	> 53.8 µM	> 100	–	> 100	–	–	–
N#Cc1c(-c2ccco2)cc(-c2ccc(NCc3nc4ccccc4[nH]3)cc2)nc1N	> 100	93.8	38.5	47.9 µM	> 100 µM	77.9 µM	43.3	87.9 µM	86.2 µM	–	–	–	–	–	–
CCOC(=O)c1c(C)c2c(n1C)CCc1cn[nH]c1-2	> 100	> 100	> 100	> 100 µM	> 100 µM	> 100 µM	> 100	–	–	> 100	> 100 µM	–	–	–	–
COc1nc(SC)nc2c1cnn2C1OC(C(O)CO)C(OC)C1O (stereo unspecified)	> 100	> 100	> 100	> 100 µM	> 100 µM	> 100 µM	> 100	–	–	> 100	> 100 µM	–	–	–	–
COC(OC)c1cccc2c1C(=O)CCC1(O)c3ccccc3C1C2 (stereo unspecified)	> 100	> 100	> 100	> 100 µM	> 100 µM	> 100 µM	–	> 100 µM	> 100 µM	–	> 100 µM	–	–	–	–
CCCCC(C)C1CCC2(C)C=CC(=O)C(C)=C2C1O (stereo unspecified)	> 100	> 100	> 100	> 100 µM	> 100 µM	> 100 µM	> 100	–	–	> 100	> 100 µM	–	–	–	–
Nc1nc(SCCNC(=O)CCc2ccc(O)cc2)nc2c1ncn2C1OC(CO)C(O)C1O (stereo unspecified)	> 203	> 203	> 203	> 203 µM	> 203 µM	> 203 µM	> 203	> 203 µM	> 203 µM	–	> 203 µM	–	–	–	–
COc1cc(C2C(Cl)C(=O)N2NC(=O)c2ccccc2O)ccc1O (stereo unspecified)	–	> 100	> 100	–	> 100 µM	> 100 µM	> 100	–	> 100 µM	–	> 100 µM	–	–	–	–
COc1cc2c(c(C)c1O)[C@H]1COc3ccccc3[C@H]1O2	> 100	81.6	20.5	52.2 µM	> 100 µM	35.6 µM	31.8	42.6 µM	80.8 µM	–	–	–	–	–	–
CCCn1c(SCC)c2ccccc2c1-c1nc(F)nc(F)n1	> 100	> 100	> 100	> 100 µM	–	–	> 100	> 100 µM	> 100 µM	–	> 100 µM	–	–	–	–
O=C1C(CN2CCCCC2)CCCC1CN1CCCCC1 (stereo unspecified)	> 100	> 100	> 100	> 56.9 µM and 16.1 µM	31.5 µM and 32 µM	28.5 µM and 30.9 µM	> 100	22.3 µM and 15 µM	> 100 µM and 28.4 µM	7.87	33.4 µM and 39.8 µM	34.7	25.5 µM and 8.41 µM	> 100	> 100 µM and 12.4 µM
CN1CN(c2ccccc2)C2(CCN(CCCSc3ccccc3NC(=O)/C=C/c3ccccc3)CC2)C1=O	> 60.5	> 87.3	–	4.53 µM	–	–	14.8	29.9 µM	34.4 µM	> 49.8	–	3.32	–	–	–
CCCc1c(OC)c(=O)c2c(OC)cc(OC)c3c4c(OC)cc(OC)c5c(=O)c(OC)c(CCC)c(c1c23)c54	29	43.7	–	27.2 µM	–	–	34.5	26.7 µM	36.8 µM	46.6	–	18.3	–	–	–

Compound	TGI [1] [µM]	TGI [2] [µM]	TGI [3] [µM]	TGI [4]	TGI [5]	TGI [6]	TGI [7] [µM]	TGI [8]	TGI [9]	TGI [10] [µM]	TGI [11]	TGI [12] [µM]	GI50 [4]	GI50 [7] [µM]	GI50 [9]
CCc1n[nH]c(=O)n1/N=C/c1ccccc1Cl	> 100	> 100	–	> 100 µM	–	–	> 100	> 100 µM	> 100 µM	> 100	–	> 100	–	–	–
S=C(N/N=C(/c1ccccc1)c1ccccn1)Nc1ccccc1Cl	6.94	13	–	2.31 µM	–	–	6.24	13.1 µM	12.6 µM	6.89	–	2.19	–	–	–
O=C(/C=C/c1ccc(Cl)cc1)Oc1ccc(/C=C2\CCCCC2=O)cc1	> 100	> 100	–	> 100 µM	–	–	> 100	> 100 µM	> 100 µM	> 100	–	> 100	–	–	–
C=CCC(NC(=O)C(CC(=O)OC(C)(C)C)NC(=O)OC(C)(C)C)C(=O)OC (stereo unspecified) (Boc-Asp(OtBu)-[AllylGly]-OMe; configuration not given here)	> 100	> 100	–	51.8 µM	–	–	> 100	> 100 µM	> 100 µM	> 100	–	> 100	–	–	–
Cc1c(CCOC=O)c(=O)[nH]c2nncn12	> 100	> 100	–	> 100 µM	–	–	> 100	> 100 µM	> 100 µM	> 100	–	> 100	–	–	–
CC(C)(C)c1ccc(-c2nc3ccc([N+](=O)[O-])cc3c(=O)o2)cc1	> 100	> 100	–	71.9 µM	–	–	> 100	> 100 µM	> 100 µM	89.2	–	66	–	–	–
O=C1C(/C=C/c2ccc(Cl)cc2)=NNC2N1N=C1NC(=O)C3(NN12)c1ccccc1-c1ccccc13 (stereo unspecified)	> 100	> 100	–	> 100 µM	–	–	> 100	> 100 µM	> 100 µM	> 100	–	> 100	–	–	–
C[C@]12CC[C@@H]3c4cc(OCC(F)(F)F)c(O)cc4C(=O)C[C@H]3[C@@H]1CC[C@@H]2O	> 85.3	> 100	–	> 84.5 µM	–	–	> 100	> 100 µM	> 100 µM	> 100	–	> 66.4	–	–	–
COC(=O)C(CCCC1(c2ccccc2)OCCO1)C(C)=O (stereo unspecified)	> 100	> 100	> 100	> 100 µM	> 100 µM	> 100 µM	> 100	> 100 µM	> 100 µM	–	> 100 µM	–	–	–	–
O=P(Oc1ccccc1)(Oc1ccccc1)Oc1c[nH]c2ccccc12	4.56	31	–	13.9 µM	–	–	26.7	33.1 µM	28.3 µM	25.3	–	31.3	–	–	–
Clc1ccc(Oc2ccc(N=Cc3ccc(Cl)cc3Cl)cc2Cl)cc1	> 100	> 100	–	> 100 µM	–	–	> 100	63.5 µM	> 100 µM	> 100	–	> 100	–	–	–
CCCCCNc1nonc1N	> 100	> 100	–	> 100 µM	–	–	> 100	> 100 µM	> 100 µM	> 100	–	> 100	–	–	–
COC1=CC(=O)[C@H]2[C@H](C)C(c3ccccc3)[C@@]2(C)C1=O (stereo partly specified)	> 100	> 100	> 100	> 100 µM	> 100 µM	–	> 100	> 100 µM	> 100 µM	–	> 100 µM	–	–	–	–
CC(C)C1(C)N=C(C(F)(F)F)c2cc(C(=O)C(F)(F)F)c3ccccc3c2N1 (stereo unspecified)	24.5	23.5	–	15.8 µM	–	–	14.6	15.8 µM	15.5 µM	14.7	–	11.2	–	–	–
CC(OC(=O)NCn1cc(-c2ccccc2)nn1)c1ccccc1 (stereo unspecified)	> 100	> 100	–	> 100 µM	–	–	> 100	> 100 µM	> 100 µM	> 100	–	> 100	–	–	–
